One data set has as its system invasive breast cancer. The settings on record: women; cited from earlier work.
The conditions of data set [1]: women, same study; cited from earlier work.
The next data set relates to LNCaP cells. Description: In vitro growth proliferation study, calcein uptake assay. It is filed as cell-based, human. The settings on record: nilutamide 0.1 μM, 120 hours. The protocol:
The effects of the polypeptide on the growth and proliferation of the cells was then assessed. […] In addition, LNCaP cells were also cultured in the presence of the non-steroidal antiandrogen nilutamide The human prostate cancer cell line, LNCaP was obtained from American Type Tissue Collection (ATCC) and was routinely cultured in growth medium containing phenol red RPMI 1640 (Invitrogen, Auckland, New Zealand) supplemented with 10% fetal bovine serum (FBS, GIBCO) and 1% antibiotic/antimycotic mixture (Invitrogen, Auckland, New Zealand). Cells were maintained at 37° C. in 5% CO2. […] In addition as control, 6 wells were treated with the nonsteroidal antiandrogen nilutamide (0.1 μM) as well as 6 wells with 10% charcoal stripped serum, to simulate steroid free conditions. After 120 hours in culture, cells were washed once with PBS and labelled with calcein ([…], Molecular Probes, Oregon, USA) at 1 mM final concentration in PBS. Calcein positive cells were detected using a FLUOstar OPTIMA plate reader (BMG Labtech, Victoria, Australia). Experiments were performed in 6 replicates for each treatment condition. Data are presented as mean±SEM unless otherwise indicated.

Another data set has as its system breast cancer. The settings on record: adjuvant tamoxifen for about 5 years, women with cancers expressing the estrogen receptor; cited from earlier work.

Regarding `O=C(c1ccc(OCCN2CCCCC2)cc1)c1c(-c2ccc(O)cc2)sc2cc(O)ccc12` [Raloxifene], the “reduction of risk of invasive breast cancer” value with invasive breast cancer was 44%. For the same compound, the “increase of risk of fatal stroke” value in data set [1] is given as 49%.

In the case of `CC1(C)NC(=O)N(c2ccc([N+](=O)[O-])c(C(F)(F)F)c2)C1=O` [nilutamide], in the data set with LNCaP cells, the “reduction of prostate cancer cell proliferation” value was 80%.

On to `CC/C(=C(\c1ccccc1)c1ccc(OCCN(C)C)cc1)c1ccccc1` [tamoxifen], for which the “reduction of annual breast cancer death rate” value in the data set with breast cancer was 31%.

The values above are taken from patent US20100291086A1, “USE OF ESTROGEN AND ANDROGEN BINDING PROTEINS IN METHODS AND COMPOSITIONS FOR TREATING GYNAECOLOGICAL CANCERS” (priority 2007, published 2010).
